Publication PMC9920260, “Chemical Modification of Auranofin Yields a New Family of Anticancer Drug Candidates: The Gold(I) Phosphite Analogues” (Molecules, 2023)
Like-named read-outs stand apart in the source and are kept apart here.

Legend:
[1] = Water solubility by quantitative 1H NMR of saturated solution; assay type: physicochemical; details: saturated solution in D2O, heated to 40 °C and sonicated 90 min, cooled to room temperature, quantitative 1HNMR vs Me2SO2
Method: (§1) For determining the solubility of investigated compounds, 5 mg of the selected gold(I) complex was suspended in an Eppendorf test tube with 300 μL of D2O and 300 μL of a Me2SO2/D2O solution 6.94 mM (Me2SO2 final conc. 3.47 mM). The suspension was heated to 40 °C and sonicated for 90 min. The resulting saturated solution was left to cool to room temperature, decanted, transferred to an NMR tube and then analyzed through quantitative ^1HNMR spectroscopy (tilt angle = 45°; recycle delay = 4 s; number of scans = 16). The concentration (solubility) was calculated by the relative integral (related to phosphine or phosphite -CH3 groups) with respect to Me2SO2 singlet (δ = 3.14 ppm). LogP values were determined through a modification of the shake-flask method reported in [22]. More precisely, in a 15 mL Falcon tube, roughly 2 mg of the sample was added in 2 mL of n-octanol-saturated water and 2 mL of water-saturated n-octanol. The mixture was hand shaken for ten minutes, and then 0.5 mL of each phase were moved in two different mineralization tubes together with 1 mL of metal-free concentrated nitric acid. The mixtures were heated overnight at 90 °C, then diluted with 4.5 mL of ultrapure water. The gold concentration in each sample was determined through ICP-OES and the respective LogP values were calculated through the ratio between octanol and water gold concentrations.

[2] = design: method as in PMID 29057040; details: reported values; cited from earlier work
[3] = LogP, modified shake-flask method with ICP-OES gold determination; assay type: physicochemical; details: n-octanol/water, gold concentration by ICP-OES
Method: as §1

[4] = tested on: A2780 ovarian cancer cells; assay: MTT cytotoxicity assay, A2780; assay type: cell-based, human; details: A2780, 72 h of treatment, three independent experiments
Method: (§2) RPMI 1640 cell culture medium, fetal bovine serum (FBS), and phosphate-buffered saline (PBS) were obtained from Euroclone (Milan, Italy). Thiazolyl blue tetrazolium bromide (MTT) was obtained from Merck Life Science (Milan, Italy). The human ovarian cancer cell lines A2780, A2780/CDDP-R (cisplatin-resistant) and SKOV3 were obtained from ATCC. Cell lines were maintained in RPMI-1640 supplemented with 10% fetal calf serum (FCS) and antibiotics (penicillin, 100 U/mL; streptomycin, 100 μg/mL) at 37 °C in a 5% CO2 humidified atmosphere and subcultured twice weekly. Split 1:5 (3–6 × 10^4 cells per mL).
(§3) The cytotoxic effects of auranofin analogues on ovarian cancer cell lines were determined by using the colourimetric MTT (3-(4,5-dimethylthiazol-2-yl)-2,5-diphenyltetrazolium bromide) assay. Viable cells can metabolize MTT into formazan, a blue-coloured compound that is detectable at 595 nm. […] Following precipitation, blue formazan was dissolved in 100 µL of DMSO, and the optical density was read in a microplate reader interfaced with Microplate Manager/PV version 4.0 software (BioRad Laboratories, Hercules, CA, USA). From the absorbance measurements, the half-maximal inhibitory concentration (IC50) value of each compound on ovarian cancer cells was calculated using GraphPad Prism software version 6.0 (Graphpad Holdings, LLC, Boston, MA, USA). […]

[5] = tested on: cisplatin-resistant A2780 (A2780R) ovarian cancer cells; assay: MTT cytotoxicity assay, A2780R; assay type: cell-based, human; details: 72 h of treatment, three independent experiments
Method: as §2, §3

[6] = tested on: SKOV-3 ovarian cancer cells; assay: MTT cytotoxicity assay, SKOV-3; assay type: cell-based, human; details: SKOV-3, 72 h of treatment, three independent experiments
Method: as §2, §3

[7] = tested on: thioredoxin reductase (TrxR); details: A2780 cells, 24 h of treatment at the 72 h exposure IC50 dose
Method: The analysis was performed in triplicate.
Experiments were performed in triplicate.

[8] = tested on: thioredoxin reductase (TrxR); design: method as in PMID 32497830; details: auranofin, previously demonstrated; cited from earlier work

Row | SMILES | Water solubility [1] | LogP [2] | LogP [3] | IC50 [4] | IC50 [5] | IC50 [6] | residual TrxR enzyme activity with respect to controls [7] | inhibition of TrxR activity [8]
1 | CC[P](CC)(CC)[Au][I] [Au(PEt3)I] | 0.08 millimolar | 4.6 |  |  |  |  |  | 
2 | CO[PH](OC)(OC)[Au][S]C1OC(COC(C)=O)C(OC(C)=O)C(OC(C)=O)C1OC(C)=O (stereo not shown) [AuP(OCH3)3SAtg] | 2.76 millimolar |  | −0.7 | 1260 ± 220 nM | 2980 ± 230 nM | 2440 ± 320 nM | about 55% | 
3 | CCP(CC)CC.[Au+].[Cl-] [Au(PEt3)Cl] | 0.68 millimolar | 1.7 |  |  |  |  |  | 
4 | CC(=O)OC[C@H]1O[C@@H]([S-])[C@H](OC(C)=O)[C@@H](OC(C)=O)[C@@H]1OC(C)=O.CCP(CC)CC.[Au+] [auranofin, 1-Thio-β-D-glucopyranosatotriethylphosphine gold-2,3,4,6-tetraacetate] | 0.34 millimolar | 1.6 |  |  |  |  |  | 40–50%
